Laboratory results from BindingDB's records for doi:10.1016/s0960-894x(00)00604-1 (Merck Research Laboratories, 2001).

Each compound was assayed against Histone deacetylase (Eimeria tenella) (assay: Inhibitory activity against histone deacetylase (HDAC) from partially purified extracts of Eimeria tenella protozoal cells).

**Q.** `CC[C@H](C)[C@@H]1NC(=O)[C@H](Cc2cn(OC)c3ccccc23)NC(=O)[C@H](CCCCCC(=O)OC)NC(=O)[C@H]2CCCCN2CC1=O` was tested. Which IC50 did it give?
**A.** 0.8 nM

**Q.** With `CCCCCCCC[C@@H]1NC(=O)[C@H]2CCCCN2CC(=O)[C@H]([C@@H](C)CC)NC(=O)[C@H](Cc2cn(OC)c3ccccc23)NC1=O` as the compound, how does the IC50 read?
**A.** 300 nM

**Q.** With `CCC(=O)CCCCC[C@@H]1NC(=O)[C@H]2CCCCN2CC(=O)[C@H]([C@@H](C)CC)NC(=S)[C@H](Cc2cn(OC)c3ccccc23)NC1=O` as the compound, how does the IC50 read?
**A.** 210 nM

**Q.** `CC[C@H](C)[C@@H]1NC(=O)[C@H](Cc2cn(OC)c3ccccc23)NC(=O)[C@H](CCCCCC(=O)C2CO2)NC(=O)[C@H]2CCCCN2CC1=O` (some centres not stated) was tested. Which IC50 did it give?
**A.** 1 nM

**Q.** Which IC50 does the source give for `CC[C@H](C)[C@@H]1NC(=O)[C@H](Cc2cn(OC)c3ccccc23)NC(=O)[C@H](CCCCCP(=O)(OC)OC)NC(=O)[C@H]2CCCCN2CC1=O` here?
**A.** 850 nM

**Q.** For `CC[C@H](C)[C@@H]1NC(=O)[C@H](Cc2cn(OC)c3ccccc23)NC(=O)[C@H](CCCCCC(=O)O)NC(=O)[C@H]2CCCCN2CC1=O`, which IC50 is on record?
**A.** 30 nM

**Q.** With `CC[C@H](C)[C@@H]1NC(=O)[C@H](Cc2cn(OC)c3ccccc23)NC(=O)[C@H](CCCCCC(=O)C(C)O)NC(=O)[C@H]2CCCCN2CC1=O` (some centres not stated) as the compound, how does the IC50 read?
**A.** 4 nM
